From US20240122890A1, “USE OF EXOGENOUS KETONE ESTERS TO INDUCE WEIGHT LOSS IN MAMMALS” (Buck Institute for Research on Aging, priority 2021, published 2024)

What was measured:
[1] = Body weight of mice swapped to a diet containing 20% KE; assay type: in vivo, C57/BL6 mice; details: diet containing 20% KE (by weight); n=5 female
Description: Male (n=10) and female (n=10) C57/BL6 mice were fed control diet for one week. The next week n=5 male and n=5 female mice were swapped to a diet containing 20% KE (by weight) mixed into a custom-made diet.

[2] = Waking body weight with daily ketone ester consumption in a person with obesity; assay type: in vivo, human; details: for Weight (waking body weight): daily 25 g KE
Description: This example describes the effect of daily ketone ester consumption in a person with obesity (BMI=42.5 kg/m^2). The subject began consuming one 25 g serving of KE each morning on Nov. 15, 2021, and maintained daily consumption each morning for 7 weeks. The KE was in a commercially available consumer-friendly beverage formulation (Juvenescence, NJ, USA). Body weight was recorded by the subject after waking each morning (see, e.g., Table 1 and FIG. 3). […] The highest body weight in this period was on Nov. 15, 2021 (288 lbs), and the lowest was on Day Dec. 21, 2021 (254 lbs), giving a total weight loss of 34 lbs (11.8% of starting body mass)

[3] = 25 g KE each morning, highest to lowest body weight

Structure (SMILES): CCCCCC(=O)OCC[C@@H](C)OC(=O)CCCCC [KE, bis hexanoyl (R)-1,3-butanediol]
- deaths [1]: Two female animals died due to rapid weight loss
- lowest body weight in this period ([2]; 25 g KE each morning, Dec. 21, 2021): 254 lbs
- highest body weight in this period ([2]; 25 g KE each morning, Nov. 15, 2021): 288 lbs
- total weight loss [2, 3]: 34 lbs
- total weight loss, % of starting body mass [2, 3]: 11.8%
- Weight (waking body weight) ([2]; 1 Dec. 2021): 272.5 lbs
- Weight (waking body weight) ([2]; 1 Jan. 2022): 258 lbs
- Weight (waking body weight) ([2]; 2 Dec. 2021): 272.5 lbs
- Weight (waking body weight) ([2]; 2 Jan. 2022): 257 lbs
- Weight (waking body weight) ([2]; 3 Dec. 2021): 272 lbs
- Weight (waking body weight) ([2]; 3 Jan. 2022): 255.5 lbs
- Weight (waking body weight) ([2]; 4 Dec. 2021): 271 lbs
- Weight (waking body weight) ([2]; 4 Jan. 2022): 255.5 lbs
- Weight (waking body weight) ([2]; 5 Dec. 2021): 270 lbs
- Weight (waking body weight) ([2]; 5 Jan. 2022): 256 lbs
- Weight (waking body weight) ([2]; 6 Dec. 2021): 268.5 lbs
- Weight (waking body weight) ([2]; 7 Dec. 2021): 267.5 lbs
- Weight (waking body weight) ([2]; 8 Dec. 2021): 267 lbs
- Weight (waking body weight) ([2]; 9 Dec. 2021): 266 lbs
- Weight (waking body weight) ([2]; 10 Dec. 2021): 265.5 lbs
- Weight (waking body weight) ([2]; 11 Dec. 2021): 264.5 lbs
- Weight (waking body weight) ([2]; 12 Dec. 2021): 264 lbs
- Weight (waking body weight) ([2]; 13 Dec. 2021): 262.5 lbs
- Weight (waking body weight) ([2]; 14 Dec. 2021): 261.5 lbs
- Weight (waking body weight) ([2]; 15 Dec. 2021): 260.5 lbs
- Weight (waking body weight) ([2]; 15 Nov. 2021): 288 lbs
- Weight (waking body weight) ([2]; 16 Dec. 2021): 258 lbs
- Weight (waking body weight) ([2]; 16 Nov. 2021): 286.5 lbs
- Weight (waking body weight) ([2]; 17 Dec. 2021): 256 lbs
- Weight (waking body weight) ([2]; 17 Nov. 2021): 284 lbs
- Weight (waking body weight) ([2]; 18 Dec. 2021): 256 lbs
- Weight (waking body weight) ([2]; 18 Nov. 2021): 283 lbs
- Weight (waking body weight) ([2]; 19 Dec. 2021): 255 lbs
- Weight (waking body weight) ([2]; 19 Nov. 2021): 283 lbs
- Weight (waking body weight) ([2]; 20 Dec. 2021): 255 lbs
- Weight (waking body weight) ([2]; 20 Nov. 2021): 282.5 lbs
- Weight (waking body weight) ([2]; 21 Dec. 2021): 254 lbs
- Weight (waking body weight) ([2]; 21 Nov. 2021): 281.5 lbs
- Weight (waking body weight) ([2]; 22 Dec. 2021): 256 lbs
- Weight (waking body weight) ([2]; 22 Nov. 2021): 279.5 lbs
- Weight (waking body weight) ([2]; 23 Dec. 2021): 258 lbs
- Weight (waking body weight) ([2]; 23 Nov. 2021): 279 lbs
- Weight (waking body weight) ([2]; 24 Dec. 2021): 257 lbs
- Weight (waking body weight) ([2]; 24 Nov. 2021): 278 lbs
- Weight (waking body weight) ([2]; 25 Dec. 2021): 258 lbs
- Weight (waking body weight) ([2]; 25 Nov. 2021 (first line of this date)): 278 lbs
- Weight (waking body weight) ([2]; 25 Nov. 2021 (second line of this date)): 276.5 lbs
- Weight (waking body weight) ([2]; 26 Dec. 2021): 260 lbs
- Weight (waking body weight) ([2]; 26 Nov. 2021): 275 lbs
- Weight (waking body weight) ([2]; 27 Dec. 2021): 258 lbs
- Weight (waking body weight) ([2]; 27 Nov. 2021): 275 lbs
- Weight (waking body weight) ([2]; 28 Dec. 2021): 257 lbs
- Weight (waking body weight) ([2]; 28 Nov. 2021): 273.5 lbs
- Weight (waking body weight) ([2]; 29 Dec. 2021): 258 lbs
- Weight (waking body weight) ([2]; 29 Nov. 2021): 273 lbs
- Weight (waking body weight) ([2]; 30 Dec. 2021): 260.5 lbs
- Weight (waking body weight) ([2]; 30 Nov. 2021): 273 lbs
- Weight (waking body weight) ([2]; 31 Dec. 2021): 260 lbs
